Like-named read-outs stand apart in the source and are kept apart here. Where no end group is shown, it is not given here.
Experiments:
MRSA (B038 V1S1 A) = assay type: cell-based, methicillin-resistant S. aureus
Protocol: (§1) The antimicrobial activity of the peptides was determined through the minimum inhibitory concentrations (MICs) and the minimum bactericidal concentration (MBCs) using the broth-dilution method in a 96-well plate, as described in the previous study. Six bacteria, including the Gram-positive bacteria, S. aureus (ATCC CRM 6538), MRSA (ATCC CRM 12493) and E. faecalis (NCTC 12697), the Gram-negative bacteria, E. coli (ATCC CRM 8739), K. pneumoniae (ATCC CRM 43816) and P. aeruginosa (ATCC CRM 9027), the yeast, C. albicans (ATCC CRM 10231) and clinical isolates, S. aureus (B042 V2E1 A), MRSA (B038 V1S1 A), E. coli (ATCC BAA-2340) and K. pneumoniae (ATCC BAA-1705) were used in these assays to evaluate the antimicrobial potency of the two peptides by determining their MICs and MBCs. All bacteria were cultured in MHB and the yeast, C. albicans was cultured in YPD broth overnight. Then, the microorganisms were sub-cultured and diluted to the final concentration of 2 × 10^5 CFU/mL to 5 × 10^5 CFU/mL. The Norfloxacin and amphotericin B were used as positive controls for the bacteria and yeast, respectively. The assay was repeated three times, with five replicates at each time.

MRSA (ATCC CRM 12493) [1] = assay type: cell-based, methicillin-resistant S. aureus
Protocol: as §1

E. coli (ATCC CRM 8739) [2] = assay type: cell-based, Escherichia coli
Protocol: (§2) The MBIC and MBEC assays were performed to measure the inhibition and eradication of bacterial biofilm in the presence of different concentrations of peptides. Gram-positive bacteria were inoculated in Luria–Bertani (LB) broth at 37 °C overnight whereas Gram-negative bacteria were inoculated in tryptic soy broth (TSB), and then sub-cultured until reaching the logarithmic growth phase by measuring the OD values at a wavelength of 550nm. For the MBIC assay, 99 µL of diluted bacterial suspension (5 × 10^5 CFU/mL) was mixed with 1 µL of prepared peptide solutions in the wells of a round-bottomed 96-well plate, achieving the final concentrations from 512 to 1 µM, and then incubated at 37 °C for 24 h in a shaking incubator at 200 revolutions per minute (rpm). After this, the plate was washed twice by PBS and fixed with methanol for 30 min. For MBEC assay, 100 µL of diluted bacterial suspension (5 × 10^5 CFU/mL) was seeded into a round-bottomed 96-well plate and incubated at 37 °C for 24 h in a shaking incubator at 200 rpm to obtain mature biofilm. After this, plates were washed twice by PBS and incubated with different concentrations of peptide solution from 512 to 1 µM at 37 °C for 24 h. Afterwards, the plate was washed twice with PBS and fixed with methanol for 30 min. Then, both MBIC and MBEC plates were stained by 130 μL of 0.1% (g/v) crystal violet solutions for 30 min and washed with PBS until no apparent staining was observed. Evaporating crystal violet stains were dissolved by 33% (v/v) acetic acid, and the absorbance values were measured by a Synergy HT Microplate Reader (BioTek, Minneapolis, MN, USA) set to 595 nm. The minimum concentration that inhibited the formation of biofilm was defined when compared to the negative control group, as the MBIC. The minimum concentration that eradicated the biofilm was defined, when compared to the negative control group, as the MBEC. The biofilm assays were performed in triplicate.

E. faecalis (NCTC 12697) [3] = assay type: cell-based, Enterococcus faecalis
Protocol: as §2

[4] = system: P. aeruginosa (ATCC CRM 9027); assay type: cell-based, Pseudomonas aeruginosa
Protocol: as §2

E. coli (ATCC BAA-2340) = assay type: cell-based, Escherichia coli
Protocol: as §1

E. coli (ATCC CRM 8739) [5] = assay type: cell-based, Escherichia coli; remark: listed apart in the source
Protocol: as §1

[6] = system: S. aureus (ATCC CRM 6538); assay type: cell-based, Staphylococcus aureus
Protocol: as §1

S. aureus (B042 V2E1 A) = assay type: cell-based, Staphylococcus aureus
Protocol: as §1

[7] = system: C. albicans (ATCC CRM 10231); assay type: cell-based, Candida albicans
Protocol: as §1

[8] = system: S. aureus (ATCC CRM 6538); assay type: cell-based, Staphylococcus aureus; remark: listed apart in the source
Protocol: as §2

[9] = system: P. aeruginosa (ATCC CRM 9027); assay type: cell-based, Pseudomonas aeruginosa; remark: listed apart in the source
Protocol: as §1

MRSA (ATCC CRM 12493) [10] = assay type: cell-based, methicillin-resistant S. aureus; remark: listed apart in the source
Protocol: as §2

[11] = system: K. pneumoniae (ATCC BAA-1705); assay type: cell-based, Klebsiella pneumoniae
Protocol: as §1

[12] = system: K. pneumoniae (ATCC CRM 43816); assay type: cell-based, Klebsiella pneumoniae
Protocol: as §1

E. faecalis (NCTC 12697) [13] = assay type: cell-based, Enterococcus faecalis; remark: listed apart in the source
Protocol: as §1

[14] = system: K. pneumoniae (ATCC CRM 43816); assay type: cell-based, Klebsiella pneumoniae; remark: listed apart in the source
Protocol: as §2

[15] = clinical isolated strain MRSA (B038 V1S1 A)
[16] = KPC-producing resistant strain E. coli (ATCC BAA-2340)
[17] = clinical isolated strain S. aureus (B042 V2E1 A)
[18] = KPC-producing resistant strain K. pneumoniae (ATCC BAA-1705)

LFVNVLDKIR-NH2 [LF-10, LFVNVLDKIR-NH2]
>512 µM: MBC (MRSA (B038 V1S1 A); B038 V1S1 A) | MIC (MRSA (B038 V1S1 A); B038 V1S1 A) | MBC (MRSA (ATCC CRM 12493) [1]; ATCC CRM 12493) | MIC (MRSA (ATCC CRM 12493) [1]; ATCC CRM 12493) | MBEC (E. coli (ATCC CRM 8739) [2]; ATCC CRM 8739, 24 h) | MBIC (E. coli (ATCC CRM 8739) [2]; ATCC CRM 8739, 24 h) | MBEC (E. faecalis (NCTC 12697) [3]; NCTC 12697, 24 h) | MBIC (E. faecalis (NCTC 12697) [3]; NCTC 12697, 24 h) | MBEC ([4]; ATCC CRM 9027, 24 h) | MBIC ([4]; ATCC CRM 9027, 24 h) | MBC (E. coli (ATCC BAA-2340); ATCC BAA-2340) | MIC (E. coli (ATCC BAA-2340); ATCC BAA-2340) | MBC (E. coli (ATCC CRM 8739) [5]; ATCC CRM 8739) | MIC (E. coli (ATCC CRM 8739) [5]; ATCC CRM 8739) | MBC ([6]; ATCC CRM 6538) | MIC ([6]; ATCC CRM 6538) | MBC (S. aureus (B042 V2E1 A); B042 V2E1 A) | MIC (S. aureus (B042 V2E1 A); B042 V2E1 A) | MBC ([7]; ATCC CRM 10231) | MIC ([7]; ATCC CRM 10231) | MBEC ([8]; ATCC CRM 6538, 24 h) | MBIC ([8]; ATCC CRM 6538, 24 h) | MBC ([9]; ATCC CRM 9027) | MIC ([9]; ATCC CRM 9027) | MBEC (MRSA (ATCC CRM 12493) [10]; ATCC CRM 12493, 24 h) | MBIC (MRSA (ATCC CRM 12493) [10]; ATCC CRM 12493, 24 h) | MBC ([11]; ATCC BAA-1705) | MIC ([11]; ATCC BAA-1705) | MBC ([12]; ATCC CRM 43816) | MIC ([12]; ATCC CRM 43816) | MBC (E. faecalis (NCTC 12697) [13]; NCTC 12697) | MIC (E. faecalis (NCTC 12697) [13]; NCTC 12697) | MBEC ([14]; ATCC CRM 43816, 24 h) | MBIC ([14]; ATCC CRM 43816, 24 h)

VNVLDKIR-NH2 [VN-8, VNVLDKIR-NH2]
>512 µM: MBC (MRSA (B038 V1S1 A); [15]) | MIC (MRSA (B038 V1S1 A); [15]) | MBC (MRSA (ATCC CRM 12493) [1]; MRSA (ATCC CRM 12493)) | MIC (MRSA (ATCC CRM 12493) [1]; MRSA (ATCC CRM 12493)) | MBEC (E. coli (ATCC CRM 8739) [2]; biofilm eradication, E. coli (ATCC CRM 8739)) | MBIC (E. coli (ATCC CRM 8739) [2]; biofilm formation, E. coli (ATCC CRM 8739)) | MBEC (E. faecalis (NCTC 12697) [3]; biofilm eradication, E. faecalis (NCTC 12697)) | MBIC (E. faecalis (NCTC 12697) [3]; biofilm formation, E. faecalis (NCTC 12697)) | MBEC ([4]; biofilm eradication, P. aeruginosa (ATCC CRM 9027)) | MBIC ([4]; biofilm formation, P. aeruginosa (ATCC CRM 9027)) | MBC (E. coli (ATCC BAA-2340); [16]) | MIC (E. coli (ATCC BAA-2340); [16]) | MBC (E. coli (ATCC CRM 8739) [5]; E. coli (ATCC CRM 8739)) | MIC (E. coli (ATCC CRM 8739) [5]; E. coli (ATCC CRM 8739)) | MBC ([6]; S. aureus (ATCC CRM 6538)) | MIC ([6]; S. aureus (ATCC CRM 6538)) | MBC (S. aureus (B042 V2E1 A); [17]) | MIC (S. aureus (B042 V2E1 A); [17]) | MBC ([7]; C. albicans (ATCC CRM 10231)) | MIC ([7]; C. albicans (ATCC CRM 10231)) | MBEC ([8]; biofilm eradication, S. aureus (ATCC CRM 6538)) | MBIC ([8]; biofilm formation, S. aureus (ATCC CRM 6538)) | MBC ([9]; P. aeruginosa (ATCC CRM 9027)) | MIC ([9]; P. aeruginosa (ATCC CRM 9027)) | MBEC (MRSA (ATCC CRM 12493) [10]; biofilm eradication, MRSA (ATCC CRM 12493)) | MBIC (MRSA (ATCC CRM 12493) [10]; biofilm formation, MRSA (ATCC CRM 12493)) | MBC [11, 18] | MIC [11, 18] | MBC ([12]; K. pneumoniae (ATCC CRM 43816)) | MIC ([12]; K. pneumoniae (ATCC CRM 43816)) | MBC (E. faecalis (NCTC 12697) [13]; E. faecalis (NCTC 12697)) | MIC (E. faecalis (NCTC 12697) [13]; E. faecalis (NCTC 12697)) | MBEC ([14]; biofilm eradication, K. pneumoniae (ATCC CRM 43816)) | MBIC ([14]; biofilm formation, K. pneumoniae (ATCC CRM 43816))

— publication PMC9405102, “Targeted Modification and Structure-Activity Study of GL-29, an Analogue of the Antimicrobial Peptide Palustrin-2ISb” (Antibiotics, 2022)
